{"source": "patent US20040234981A1", "about": "“Method of determining dna base sequence” (priority 2001, published 2004)", "molecules": {"B1": {"name": "T7 RNA polymerase F644Y/Δ1: T7 RNA polymerase F644Y deficient in amino acids 172 and 173; plasmid pT7RF644Y/Δ1, FERM BP-7619 (protein, UniProt P00573 1-883, looked up, variant F644Y del172-173)", "T7 RNA polymerase": "MNTINIAKNDFSDIELAAIPFNTLADHYGERLAREQLALEHESYEMGEARFRKMFERQLKAGEVADNAAAKPLITTLLPKMIARINDWFEEVKAKRGKRPTAFQFLQEIKPEAVAYITIKTTLACLTSADNTTVQAVASAIGRAIEDEARFGRIRDLEAKHFKKNVEEQLNVGHVYKKAFMQVVEADMLSKGLLGGEAWSSWHKEDSIHVGVRCIEMLIESTGMVSLHRQNAGVVGQDSETIELAPEYAEAIATRAGALAGISPMFQPCVVPPKPWTGITGGGYWANGRRPLALVRTHSKKALMRYEDVYMPEVYKAINIAQNTAWKINKKVLAVANVITKWKHCPVEDIPAIEREELPMKPEDIDMNPEALTAWKRAAAAVYRKDKARKSRRISLEFMLEQANKFANHKAIWFPYNMDWRGRVYAVSMFNPQGNDMTKGLLTLAKGKPIGKEGYYWLKIHGANCAGVDKVPFPERIKFIEENHENIMACAKSPLENTWWAEQDSPFCFLAFCFEYAGVQHHGLSYNCSLPLAFDGSCSGIQHFSAMLRDEVGGRAVNLLPSETVQDIYGIVAKKVNEILQADAINGTDNEVVTVTDENTGEISEKVKLGTKALAGQWLAYGVTRSVTKRSVMTLAYGSKEYGFRQQVLEDTIQPAIDSGKGLMFTQPNQAAGYMAKLIWESVSVTVVAAVEAMNWLKSAAKLLAAEVKDKKTGEILRKRCAVHWVTPDGFPVWQEYKKPIQTRLNLMFLGQFRLQPTINTNKDSEIDAHKQESGIAPNFVHSQDGSHLRKTVVWAHEKYGIESFALIHDSFGTIPADAANLFKAVRETMVDTYESCDVLADFYDQFADQLHESQLDKMPALPAKGNLNLRDILESDFAFA"}}, "key": {"[1]": {"test_system": "3′-dATP", "assay": "Test (2): 3′-dATP added during in vitro transcription with Biotin-labeled CTP, chemoluminescent signal detection", "type": "biochemical", "details": "3′-dATP concentration 0.00125 mM, wild form taken as 1, average of three runs", "experimental": "(§1) The ability to incorporate 3′-dATP of the Δ type enzyme of purified T7 RNA polymerase was compared to that of the wild type and F644Y mutation.\nIn this method, 3′-dATP was added during an in vitro transcription reaction and the synthesis level was determined by comparison with synthesis impairment. This will be described in greater detail. The template employed was pBluescriptII (Stratagene) pretreated with the restriction enzyme ScaI (made by Nippon Gene). The reaction conditions were: 40 mM Tris-HCl, pH 8.0, 25 mM NaCl, 8 mM MgCl2, 2 mM spermidine-(HCl)3, and 5 mM DTT. The concentration of ribonucleotides rATP, rCTP, rGTP, and rUTP was 0.5 mM. A 0.1 mM quantity of Biotin-labeled CTP was added and 3′-dATP was added in ranges of 0.00125 mM, 0.0025 mM, and 0.005 mM. A 25 U quantity of enzymes purified as set forth above were added to 10 μL of this solution and the reaction was conducted for 60 min at 37° C. At the conclusion of the reaction, 1 μL of 10× gel loading buffer (1 mM EDTA, 1% SDS, 50% glycerol, and 0.05% BPB) was added. The entire solution was then subjected to electrophoresis in a 1% modified formamide gel. At the conclusion of electrophoresis, northern hybridization was conducted, the synthesized product was transcribed onto a nylon membrane, and signal detection was conducted based on a chemoluminescent substrate according to a protocol of anti-SA-AP antibody (made by Oriental Yeast Co., diluted 20,000-fold) and CDP-Star™ (made by Roche Co.). A Fluoro S Multiimager (BioRad Co.) and Multianalyst, an attached image analyzing software package, were then employed to determine the level of the signal detected."}, "[2]": {"test_system": "fluorescent-labeled 3′-deoxynucleotide", "assay": "Ability to incorporate fluorescent-labeled 3′-deoxynucleotide, fluorescent signal intensity on ABI 377 XL Sequencer", "type": "biochemical", "details": "for (1) Average signal intensity U: Bodipy(564/570)-3′dUTP; for (1) Average signal intensity U / (1) Average signal intensity C / (1) Average signal intensity G / (1) Average signal intensity A: 100 units of enzyme (50 units for F644Y/Δ1); for (1) Average signal intensity C: Bodipy(581/591)-3′dCTP; for (1) Average signal intensity G: Bodipy(FL)-3′dGTP; for (1) Average signal intensity A: Bodipy(R6G)-3′dATP; for (2) Signal intensity per unit of enzyme G: conversion of (1) per unit of enzyme; for Signal intensity per unit of enzyme A, value in parentheses relative to wild enzyme / Signal intensity per unit of enzyme C, value in parentheses relative to wild enzyme / Signal intensity per unit of enzyme G, value in parentheses relative to wild enzyme / Signal intensity per unit of enzyme U, value in parentheses relative to wild enzyme: relative to a value of 1 for the signal intensity of wild enzyme", "experimental": "A comparison was conducted of the ability to incorporate florescent-labeled 3′-deoxynucleotide of Δ-type enzyme of purified T7 RNA polymerase.\nThis method was conducted in accordance with the method of Sasaki et al. (Sasaki, N., et al. Gene, 222(1): 17-24 (1998)). In greater detail, pBluescriptII DNA was employed as template. A solution obtained by mixing Bodipy(R6G)-3′dATP, Bodipy(FL)-3′dGTP, Bodipy(581/591)-3′dCTP, Bodipy(564/570)-3′dUTP, ATP, GTP, CTP, and UTP in prescribed proportions was employed to conduct reactions differing only with regard to the T7 RNA polymerase employed. The enzymes employed were 100 units of T7 RNA polymerase (wild type) and T7 RNA polymerase F644Y; and 50 units of T7 RNA polymerase F644Y/Δ1. The reaction product was subjected to electrophoresis with an ABI 377 XL Sequencer. The average value of the fluorescent signal intensity was compared for each nucleotide.\nColumn (2) is a conversion of the value of (1) per unit of enzyme. Numbers shown in parentheses denote values relative to a value of “1” for the signal intensity of wild enzyme. […] Since the ABI 377 XL Sequencer is not a device for quantitative analysis, and operations is conducted on an extremely small amount of samples, large errors are to be expected."}, "[3]": {"test_system": "3′-deoxy nucleotide", "details": "Izawa, M., et al. J. Biol. Chem., 273 (23): 14242 (1998); cited from earlier work"}, "[4]": {"test_system": "3′-dATP", "assay": "Test (1): 3′-dATP added during in vitro transcription, amount of RNA synthesized (SYBER Green II gel image)", "type": "biochemical", "details": "3′-dATP concentration 0.024 mM, wild form of T7 RNA polymerase taken as 1, inverse of RNA synthesis level", "experimental": "as §1\nIn this method, 3′-dATP was added during an in vitro transcription reaction and the synthesis level was determined by comparison with synthesis impairment. This will be described in greater detail. The template employed was pBluescriptII (Stratagene) pretreated with the restriction enzyme ScaI (made by Nippon Gene). The reaction conditions were: 40 mM Tris-HCl, pH 8.0, 25 mM NaCl, 8 mM MgCl2, 2 mM spermidine-(HCl)3, and 5 mM DTT. The concentration of nucleotides ATP, CTP, GTP, and UTP was 0.5 mM. Of these, ATP was replaced with 3′-dATP (Sigma) in ranges of 0.006 mM, 0.008 mM, 0.012 mM, and 0.024 mM. The above purified enzymes were added to 20 μL of this solution and the reaction was conducted for 30 to 60 min at 37° C. At the conclusion of the reaction, 4 μL of 5× gel loading buffer was added (15% Ficoll, 0.1% BPB, 0.1% XC, 0.5% SDS, and 0.1 M EDTA). The entire solution was then subjected to electrophoresis in a 1% modified agarose gel containing formaldehyde. At the conclusion of electrophoresis, 10,000-fold dilution was conducted with SYBER Green II (made by Molecular Probe Co.) and dying was conducted for 20 to 40 min according to a protocol of addition to the product. A Fluoro S Multiimager (BiORad Co.) was then employed to irradiate ultraviolet radiation and pick up the fluorescent image. Multianalyst, an attached image analyzing software package, was used to determine the amount of RNA that had been synthesized from the image picked up. The various values of the results were compared. An increase in ability to incorporate 3′-dATP should result in a drop in the synthesis level. Accordingly, a comparison was made with a control, and the inverse thereof was employed as indicator of how readily 3′-dATP was incorporated."}}, "note": "“And” between values parts separate entries of the source, which are not always exact repeats. Equal values may be shown once.", "data": [{"molecule": "T7 RNA polymerase F644Y: mutant T7 RNA polymerase, tyrosine substituted for phenylalanine at residue 644; plasmid pT7RF644Y", "values": [{"measurement": "Relative ability to incorporate 3′-dATP", "setting": "[1]", "result": "1.20 ± 0.3"}, {"measurement": "Relative ability to incorporate 3′-dATP", "setting": "[1]; listed as F644Y", "result": "1.20±0.3 and 1.20"}, {"measurement": "(1) Average signal intensity U", "setting": "[2]", "result": 134}, {"measurement": "(1) Average signal intensity C", "setting": "[2]", "result": 136}, {"measurement": "(1) Average signal intensity G", "setting": "[2]", "result": 199}, {"measurement": "(1) Average signal intensity A", "setting": "[2]", "result": 74}, {"measurement": "(2) Signal intensity per unit of enzyme G", "setting": "[2]", "result": 2.0}, {"measurement": "Signal intensity per unit of enzyme A, value in parentheses relative to wild enzyme", "setting": "[2]", "result": "(1.1)"}, {"measurement": "Signal intensity per unit of enzyme C, value in parentheses relative to wild enzyme", "setting": "[2]", "result": "(0.9)"}, {"measurement": "Signal intensity per unit of enzyme G, value in parentheses relative to wild enzyme", "setting": "[2]", "result": "(0.9)"}, {"measurement": "Signal intensity per unit of enzyme U, value in parentheses relative to wild enzyme", "setting": "[2]", "result": "(1.1)"}, {"measurement": "Increase in ability to incorporate 3′-deoxy nucleotide relative to the corresponding wild form", "setting": "[3]", "result": "about fivefold"}, {"measurement": "Relative ability to incorporate 3′-dATP", "setting": "[4]", "result": 1.45}]}, {"molecule": "B1", "values": [{"measurement": "Relative ability to incorporate 3′-dATP", "setting": "[1]; listed as F644Y/Δ1", "result": "2.30±0.3 and 2.30"}, {"measurement": "Relative ability to incorporate 3′-dATP", "setting": "[1]; listed as T7 RNA polymerase F644Y/Δ 1", "result": "2.30 ± 0.3"}, {"measurement": "(1) Average signal intensity U", "setting": "[2]", "result": 332}, {"measurement": "(1) Average signal intensity C", "setting": "[2]", "result": 317}, {"measurement": "(1) Average signal intensity G", "setting": "[2]", "result": 446}, {"measurement": "(1) Average signal intensity A", "setting": "[2]", "result": 156}, {"measurement": "(2) Signal intensity per unit of enzyme G", "setting": "[2]", "result": 8.92}, {"measurement": "Signal intensity per unit of enzyme A, value in parentheses relative to wild enzyme", "setting": "[2]", "result": "(2.3)"}, {"measurement": "Signal intensity per unit of enzyme C, value in parentheses relative to wild enzyme", "setting": "[2]", "result": "(2.2)"}, {"measurement": "Signal intensity per unit of enzyme G, value in parentheses relative to wild enzyme", "setting": "[2]", "result": "(4.0)"}, {"measurement": "Signal intensity per unit of enzyme U, value in parentheses relative to wild enzyme", "setting": "[2]", "result": "(2.8)"}, {"measurement": "Relative ability to incorporate 3′-dATP", "setting": "[4]", "result": 15.5}]}]}
